Results published in patent US20230245787A1, “METHODS FOR PREDICTING SYNERGISTIC DRUG COMBINATION” (GenomiCare Biotechnology (Shanghai) Co., Ltd, priority 2020, published 2023).

Test system: Hepatocellular Carcinoma (HCC) and Intrahepatic Cholangiocarcinoma (ICC)
Assay: Exhaustive Cox proportional hazards (ECPH) model on real-world survival data of drug combination groups
Type: in vivo, human
Settings: Cox PH
[1] = Regorafenib x Lenvatinib groups (Contingency Table B)
[2] = Sorafenib x Lenvatinib groups (Contingency Table A)

Description: Then, a novel exhaustive Cox proportional hazards model (ECPH) model is used to evaluate all possible drug combinations with respect to their efficacy in prolonging patients' lives. In terms of efficacy, there can be three types of drug interaction: additive, synergistic, and antagonistic.
The approach used in the present disclosure further extends the CPH model. In an example process, drugs used for fewer than one treatment cycle or the number of patients in any variables less than 15 were removed. Then, a 2×2 contingency table is set up, in which rows are defined by every unique genomic or clinical variable, and the columns are defined by drug variable (See Table 3 as an illustration). Then the CPH model (as described in “The Robust Inference for the Cox Proportional Hazards Model”, D. Y. Lin &L. J. Wei, Journal of the Am. Stat. Assoc., pp. 1074-1078, 1989) is used to calculate independent risk factors, cumulative hazard-ratios, and p-values for each drug combination table.
Additive combination definition: The HR score of the drug A+ plus factor B+ group is between the other two treatment groups (A+B− and A−B+). The P-value of the drug A+ plus factor B+ group is not statistically significant compared with the other two treatment groups (A+B− and A−B+).
Synergistic combination definition: The HR score of the drug A+ plus factor B+ group is smaller than the other two treatment groups (A+B− and A−B+). […] The drug A+ plus factor B+ group is the statistically independent variable of the other two treatment groups (A+B− and A−B+).
In this example, data were collected and analyzed in the following steps:
(2) Real-world clinical electronic health records (EHRs) collection, clinical data entry and l long-term follow-up, according to the flowchart shown in FIG. 4.
(3) Comprehensive genomic data is matched with real-world treatment patterns and clinical outcomes feature database and analysis workflow, as shown in FIG. 5.
(4) A large one-hot encoding matrix(˜10,000*10,000) of comprehensive genomic and clinical factors. Based on the one-hot encoding matrix, the combined effects of all factors such as: age, gender, gene mutation, and drug treatment can be obtained.
(5) Applying exhaustive Cox proportional hazards model (ECPH) model
a. Patients are divided into four categories based on the combined use of the two drugs. For an example: Patients treated with Lenvatinib and without Sorafenib were defined as the Lenvatinib treatment group. Patients treated with Sorafenib and without Lenvatinib were defined as the Sorafenib treatment group. Patients treated with Sorafenib and Lenvatinib were defined as the Sorafenib-Lenvatinib treatment group. Patients treated without Sorafenib and Lenvatinib were defined as Sorafenib-Lenvatinib free treatment group.
b. 2×2 contingency tables were calculated for all possible drug combinations pairs: Millions of possible combinations of Lenvatinib.
c. Cox PH model (The Robust Inference for the Cox Proportional Hazards Model D. Y. Lin &L. J. Wei Pages 1074-1078) was used to calculate independent risk factors, cumulative hazard-ratios, and p-values for each drug combination table. […] It can be estimated as follow: h(t)=h0(t)×exp(b1x1+b2x2+ . . . +bpxp) where, • t represents the survival time. • h(t) is the hazard function determined by a set of p covariates (x1, x2, . . . , xp) • the coefficients (b1, b2, . . . , bp) measure the impact (i.e., the effect size) of covariates. • the term h0 is referred to the baseline hazard.

| SMILES | HR (hazard ratio) [1] | HR (hazard ratio) (PD-1/PD-L1 x Lenvatinib groups (Contingency Table C), Chinese HCC and ICC patients) | HR (hazard ratio) [2] |
| --- | --- | --- | --- |
| CNC(=O)c1cc(Oc2ccc(NC(=O)Nc3ccc(Cl)c(C(F)(F)F)c3)c(F)c2)ccn1 [Regorafenib] | 0.99 |  |  |
| COc1cc2nccc(Oc3ccc(NC(=O)NC4CC4)c(Cl)c3)c2cc1C(N)=O [Lenvatinib] | 0.74 | 1.00 | 0.56 |
| CNC(=O)c1cc(Oc2ccc(NC(=O)Nc3ccc(Cl)c(C(F)(F)F)c3)cc2)ccn1 [Sorafenib] |  |  | 0.76 |
